Here are results for two compounds from article PMC6689897, “Drugging an undruggable pocket on KRAS” (Proceedings of the National Academy of Sciences of the …, 2019).

For one assay, the target named is KRAS (Homo sapiens, UniProt P01116, G12D). The experiment in a line: Alpha Screen PPI assays, summary over KRAS interactions (SOS1, CRAF, PI3Kα). Type of assay: biochemical. The settings on record: interaction not given. An excerpt: Using biochemical assays, we investigated whether 1 inhibited 3 of the 4 PPIs important for KRAS cycling (Fig. 5 A, i–iii). Namely, 1) GDP-KRAS interaction with the catalytic site of SOS ([33]), 2) GTP-KRAS interaction with the allosteric site of SOS ([34]), and 3) GTP-KRAS interaction with downstream effectors (CRAF and PI3Kα). We were unable to establish a biochemical assay for the fourth intervention point, namely, 4) GTP-KRAS interaction with its GAPs (Fig. 5 A, iv). As a reference compound for these assays, we used the KRAS^G12C-specific covalent inhibitor ARS-1620 ([35]). Compound 1 inhibited all 3 RAS cycle intervention points (1 to 3) in a dose-dependent manner (Fig. 5 B–E) in the range of 100 to 770 nM (SI Appendix, Table S6).
KRAS, sequence (P01116 1-169 G12D): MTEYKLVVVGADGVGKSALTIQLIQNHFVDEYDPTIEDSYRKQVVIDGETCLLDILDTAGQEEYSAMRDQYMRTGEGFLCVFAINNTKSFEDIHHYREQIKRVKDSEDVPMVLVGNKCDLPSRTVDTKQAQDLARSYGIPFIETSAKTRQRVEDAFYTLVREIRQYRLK
(§1) 217 The coordinates and structure factors of the structures have been deposited at the
(§2) 218 Protein Data Bank with the accession codes PDB Code 6GJ5, 6GJ6, 6GJ7, 6GJ8.
(§3) 221 Measurements of various protein–protein interactions were performed using the Alpha
(§4) 222 Screen technology developed by Perkin Elmer. Recombinant RAS proteins (H-, N-, K-
(§5) 223 RAS variants; all KRAS variants are based on KRAS isoform 4B (uniprot id P01116-2);
(§6) 224 KRAS (G12D) 1-169, N-terminal 6His-tag, C-terminal avi-tag was from Xtal
(§7) 225 BioStructures, Inc., KRAS (G12C) 1-169, C-terminal avi-tag, biotinylated, mutations:
(§8) 226 C51S, C80L, C118S, NRAS(wt) 1-172, C-terminal avi-tag, biotinylated; HRAS(wt) 1-
(§9) 227 166, C-terminal avi-tag, biotinylated). Biotinylation was performed in vitro with
(§10) 228 recombinant BirA biotin-protein ligase as recommended by the manufacturer (Avidity
229 LLC, Aurora, Colorado, USA). Interacting proteins such as SOS1 (564-1049, N-terminal
230 GST-tag, TEV cleavage site), cRaf (1-303, N-terminal GST-tag, TEV cleavage site) and
(§11) 231 PI3KA- RBD (160-317, N-term-HIS_GST-tag) were expressed as glutathione S […]
(§12) 245 for 60 min in the dark at room temperature. Single oxygen induced fluorescence was
(§13) 246 measured at an Enspire multimode plate reader (Perkin Elmer) according to the
(§14) 247 manufacturer’s recommendations. Data were analyzed using the GraphPad Prism data […]

The next assay addresses T1, GTP-KRASwt::CRAF (Homo sapiens, UniProt P01116).
T1 construct: biotin (attachment tag not described)
Briefly: Alpha Screen PPI assay. Type of assay: biochemical. Particulars: Alpha Screen, duplicate.

Another assay has as its target T2, GTP-KRASG12D::CRAF (Homo sapiens, UniProt P01116, G12D).
T2 construct: KRAS (G12D) 1-169, N-terminal 6His-tag, C-terminal avi-tag was from Xtal; 6His-tag (N); purchased Xtal BioStructures, Inc
The experiment in a line: Alpha Screen PPI assay. Type of assay: biochemical. The settings on record: duplicate.

The target in a further assay is T3, GTP-KRASG12D::PI3Kα (Homo sapiens, UniProt P01116, G12D).
T3 construct: KRAS (G12D) 1-169, N-terminal 6His-tag, C-terminal avi-tag was from Xtal; 6His-tag (N); purchased Xtal BioStructures, Inc
T3 sequence (P01116 1-169 isoform P01116-2 G12D): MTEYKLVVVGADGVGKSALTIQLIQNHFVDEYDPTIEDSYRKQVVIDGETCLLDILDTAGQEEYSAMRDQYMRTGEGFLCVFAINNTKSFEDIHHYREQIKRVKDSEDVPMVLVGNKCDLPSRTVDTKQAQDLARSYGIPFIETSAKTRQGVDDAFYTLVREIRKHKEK
The experiment in a line: Alpha Screen PPI assay. Type of assay: biochemical. The settings on record: duplicate, read-out: IC50 GTP-KRASG12D::PI3K.

In assay [1] the test system is 4 BRAF(v600E) cell lines (A375, RKO, Colo 201, SK-MEL-28). Briefly: 2D and 3D proliferation in BRAF V600E control cell lines. Type of assay: cell-based, human. Particulars: low serum, soft agar, or high serum, adherent conditions. The procedure:
as §1, §2, §3, §4, §5, §6, §7, §8, §9, §10
229 LLC, Aurora, Colorado, USA). Interacting proteins such as SOS1 (564-1049, N-terminal […]
as §11, §12, §13, §14
275 IgG secondary antibody (Dako #P0448) and detected with ECL (GE Healthcare Life […]

The target of the next assay is GTP-KRASG12D::SOS1 (Homo sapiens, UniProt P01116, G12D). Briefly: KRASG12D::SOS1 GTP TR-FRET assay. (TR-FRET usually uses a lanthanide donor and a delayed reading to cut background.)
GTP-KRASG12D::SOS1, sequence (P01116 1-169 isoform P01116-2 G12D): as above

“And” between values parts separate entries of the source, which are not always exact repeats. Equal entries are not always repeated.

By IC50 is commonly meant the point on the concentration scale where inhibition reaches its midpoint. Broadly, the EC50 is the concentration giving half of the maximal effect. Lower therefore signals a more potent agent.

T2 sequence (P01116 1-169 isoform P01116-2 G12D): as above
T1 sequence (P01116 1-188 isoform P01116-2): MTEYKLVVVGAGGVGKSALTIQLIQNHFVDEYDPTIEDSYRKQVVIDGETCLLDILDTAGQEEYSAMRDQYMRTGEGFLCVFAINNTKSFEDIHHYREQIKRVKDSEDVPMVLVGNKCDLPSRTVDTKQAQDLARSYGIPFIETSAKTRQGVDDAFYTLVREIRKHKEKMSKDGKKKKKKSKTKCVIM

On to `Cn1cnc(Cn2ccc3ccc(CNCc4[nH]c5ccccc5c4[C@H]4NC(=O)c5ccc(O)cc54)cc32)c1` [Compound 1], for which the half-inhibitory concentration (IC50) was 450 nM at KRAS; 740 nM against GTP-KRASwt::CRAF; 770 nM and 180 nM against GTP-KRASG12D::CRAF; 500 nM on GTP-KRASG12D::PI3Kα. For the same compound, the antiproliferative effect result in assay [1] is “No antiproliferative effect”.

At GTP-KRASG12D::SOS1, `CN(C)Cc1[nH]c2ccccc2c1[C@H]1NC(=O)c2ccc(O)cc21` [Compound 18] gave a half-maximal effective concentration (EC50) of 33000 nM and an IC50 of 33000 nM.
